# Laboratory results: patent publication US6548687B1, “Chromium L-threonate, process for preparation of the same and their use” (priority 1998, dated 2003)
# Read-outs that look alike come from different tables or passages of the source.
# Assays:
# [1] = Precipitation of chromic hydroxide as a function of pH; type: physicochemical
# [2] = for Stable Constant: coordination compound of L-threonic acid and chromic ion, deduced with computer simulation from titration curves; for pH: pH range of the coordination compound model, deduced with computer simulation
smiles,measurement,setting,value
O=S(=O)([O-])[O-].O=S(=O)([O-])[O-].O=S(=O)([O-])[O-].[Cr+3].[Cr+3] [chromic sulphate],pH at which solution forms precipitate,[1],~4
"O=C(O)[C@H](O)[C@@H](O)CO.[O]=[Cr](=[O])([OH])[OH] [Model B, chromate L-threonate]",Stable Constant,[2]; listed as B,−0.74 ± 0.34
same,pH,[2]; listed as B,3.5-4.0
"O=C(O)[C@H](O)[C@@H](O)CO.[O]=[Cr](=[O])([OH])[OH] [Model A, chromate L-threonate]",Stable Constant,[2]; listed as A,−4.42 ± 0.14
same,pH,[2]; listed as A,˜4.5
O=C(O)[C@H](O)[C@@H](O)CO.[O]=[Cr](=[O])([OH])[OH] [chromate L-threonate],precipitate of chromic hydroxide,[1]; even in basic condition,no precipitate
same,dissolution,in alcohol and ether,no dissolution
same,dissolution,in water,dissolution in water
"O=C(O)[C@H](O)[C@@H](O)CO.[O]=[Cr](=[O])([OH])[OH] [Model C, chromate L-threonate]",Stable Constant,[2]; listed as C,−9.35 ± 0.26
same,pH,[2]; listed as C,˜6.0
[Cl][Cr]([Cl])[Cl] [chromic chloride],pH at which solution forms precipitate,[1],~4
